Experiments:
Experiment in all cases: relative viability (nuclei count vs DMSO), 5 days (fraction); higher = more cells survive
[1] = system: HCC-44
Summary of the method: (§1)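 Relative viability equals treated-well nuclei counts divided by vehicle-well nuclei counts. Counts came from 4× images of lung cancer cell lines grown in 1536-well plates for 5 days after pin-tool dosing on the day after seeding. Dosing used one drug alone or a fixed anchor-drug dose plus five library-drug doses (not always all listed) in √10 steps, and values are medians of duplicate plates.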

[2] = system: NCI-H1437
Summary of the method: as §1

[3] = system: NCI-H522
Summary of the method: as §1

[4] = system: NCI-H1623
Summary of the method: as §1

[5] = system: HCC-366
Summary of the method: as §1

[6] = system: A549
Summary of the method: as §1

## O=C(O)c1ccc(-c2c[nH]c3ncc(-c4ccccc4)cc23)cc1C1CCCC1 + CCNC(=O)c1noc(-c2cc(C(C)C)c(O)cc2O)c1-c1ccc(CN2CCOCC2)cc1 [Luminespib] (partner 0.01 µM)
[1]; first compound 0.04 µM
  relative viability: 1.08
[1]; first compound 0.1265 µM
  relative viability: 1.44
[1]; first compound 0.4 µM
  relative viability: 0.868
[1]; first compound 1.265 µM
  relative viability: 0.448
[2]; first compound 0.04 µM
  relative viability: 1.09
[2]; first compound 0.1265 µM
  relative viability: 1.07
[2]; first compound 0.4 µM
  relative viability: 0.925
[2]; first compound 1.265 µM
  relative viability: 0.603
[3]; first compound 0.04 µM
  relative viability: 1.37
[3]; first compound 0.1265 µM
  relative viability: 1.19
[3]; first compound 0.4 µM
  relative viability: 0.998
[3]; first compound 1.265 µM
  relative viability: 1.03
[4]; first compound 0.04 µM
  relative viability: 0.445
[4]; first compound 0.1265 µM
  relative viability: 0.471
[4]; first compound 0.4 µM
  relative viability: 0.512
[4]; first compound 1.265 µM
  relative viability: 0.496

## O=C(O)c1ccc(-c2c[nH]c3ncc(-c4ccccc4)cc23)cc1C1CCCC1 + Cc1nc(Nc2ncc(C(=O)Nc3c(C)cccc3Cl)s2)cc(N2CCN(CCO)CC2)n1 [Dasatinib] (partner 0.075 µM)
[2]; first compound 0.04 µM
  relative viability: 0.385
[2]; first compound 0.1265 µM
  relative viability: 0.386
[2]; first compound 0.4 µM
  relative viability: 0.374
[2]; first compound 1.265 µM
  relative viability: 0.378
[3]; first compound 0.04 µM
  relative viability: 0.833
[3]; first compound 0.1265 µM
  relative viability: 0.887
[3]; first compound 0.4 µM
  relative viability: 0.714
[3]; first compound 1.265 µM
  relative viability: 0.851
[4]; first compound 0.04 µM
  relative viability: 0.537
[4]; first compound 0.1265 µM
  relative viability: 0.502
[4]; first compound 0.4 µM
  relative viability: 0.535
[4]; first compound 1.265 µM
  relative viability: 0.545
[5]; first compound 0.04 µM
  relative viability: 0.583
[5]; first compound 0.1265 µM
  relative viability: 0.786
[5]; first compound 0.4 µM
  relative viability: 0.689
[5]; first compound 1.265 µM
  relative viability: 0.669

## O=C(O)c1ccc(-c2c[nH]c3ncc(-c4ccccc4)cc23)cc1C1CCCC1 + N=C(N)NC(=N)NCCc1ccccc1 [Phenformin] (partner 250 µM)
[1]; first compound 0.04 µM
  relative viability: 0.198
[1]; first compound 0.1265 µM
  relative viability: 0.295
[1]; first compound 0.4 µM
  relative viability: 0.224
[1]; first compound 1.265 µM
  relative viability: 0.141
[2]; first compound 0.04 µM
  relative viability: 0.295
[2]; first compound 0.1265 µM
  relative viability: 0.298
[2]; first compound 0.4 µM
  relative viability: 0.319
[2]; first compound 1.265 µM
  relative viability: 0.202
[6]; first compound 0.04 µM
  relative viability: 0.168
[6]; first compound 0.1265 µM
  relative viability: 0.197
[6]; first compound 0.4 µM
  relative viability: 0.187
[6]; first compound 1.265 µM
  relative viability: 0.0803
[3]; first compound 0.04 µM
  relative viability: 0.686
[3]; first compound 0.1265 µM
  relative viability: 0.724
[3]; first compound 0.4 µM
  relative viability: 0.549
[3]; first compound 1.265 µM
  relative viability: 0.65
[4]; first compound 0.04 µM
  relative viability: 0.618
[4]; first compound 0.1265 µM
  relative viability: 0.575
[4]; first compound 0.4 µM
  relative viability: 0.615
[4]; first compound 1.265 µM
  relative viability: 0.564
[5]; first compound 0.04 µM
  relative viability: 0.686
[5]; first compound 0.1265 µM
  relative viability: 0.631
[5]; first compound 0.4 µM
  relative viability: 0.607
[5]; first compound 1.265 µM
  relative viability: 0.611

From the supplement of paper PMC10307832
